Where “and” joins values, the source holds several entries; their conditions need not be identical. Identical values can stand only once.

The data set is described as follows: Dual chamber in-vitro skin penetration test (iontophoresis vs passive). The class given is in vitro ADME, Porcine. The source says: One type of skin penetration test can be implemented in-vitro by using excised swine skin membrane with two electrodes placed thereon, with one of the two being associated with a formulation including an active substance to be delivered by iontophoresis, as described, for example in: P. Glikfeld, C. Cullander, R. S. Hinz, and R. H. Guy, A new system for in vitro studies of iontophoresis, Pharm. Res. 5: 443-446 (1988) (hereinafter, the “dual chamber in-vitro test”). Description of the experimental design of an in-vitro skin penetration test is provided in Example No. 1. In a non-limiting way, any of the following parameters can be varied and tested with this model: voltage, current and current density, concentration of an active substance, pH, viscosity, concentration of a buffer, concentration of an electrolyte, concentration of a polymeric substance which is used to render certain rheological properties, conductivity, viscosity and adhesiveness. The influence of pore size and density of a substrate can also be assessed in a modified in-vitro skin penetration test. Delivery of the active substance into and through the skin will be determined as a function of the time of current passage.
Example No. 1 was devised to define, in a preclinical study, the optimal iontophoretic parameters for the delivery of an active substance contained in a cosmetic carrier into the skin, while minimizing systemic exposure.
In general, the active agent is formulated in a buffered, conducting solution, gel, cream, or any other optional cosmetically acceptable carrier. Competing ions are kept to a minimum. Iontophoresis is performed in vertical diffusion cells, in which the skin membrane separates the physically- and electrically-isolated anode and cathode chambers from the receptor phase, or in modified side-by-side cells of a newer design. The anode and receptor compartments contain physiologically-buffered saline at pH 7, while the cathode compartment is charged with the gel containing the active.
The skin membrane is from the porcine ear (Alternatively, human (cadaver) or nude mouse skin can be used). The skin is excised with a dermatome set to an approximate depth of 500 μm. The area of skin exposed in each electrode compartment is 0.64 cm^2.
The electrodes transmitting the electrical current are made of Ag/AgCl or graphite, prepared in a customary fashion. A constant current is passed between the electrodes and controlled by a custom-built power supply (Professional Design and Development Services, Berkeley, Calif.).
In each study, preparation, with electrical current (“Iontophoretic System”) and without electrical current (“Control”), are tested. Exposure period is 20-30 minutes. Six replicates are performed per experiment. Prior to each experiment, the viability and integrity of skin barrier function is checked via a measurement of transepidermal water loss (TEWL).
At the end of the exposure period, the entire receptor compartment is drained and the solution reserved for subsequent analysis of the active agent(s) (“Active”). The skin is removed, and the surfaces carefully cleaned and dried. Subsequently, the stratum corneum (“SC”) beneath the cathode chamber is removed by repeated 15 adhesive tape strippings (“TS”). The Active is extracted from the respective tapes and assayed to yield a total uptake of the compound into the SC. The remaining SC-stripped skin from beneath the cathode is then appropriately treated so as to recover the Active, which had crossed the SC barrier, during iontophoresis, and reached into the underlying epidermis/upper dermis. The Active is determined quantitatively using customary analytical procedures (e.g., HPLC, UV spectrum, GC, radiolabeled detection, etc.), as applicable.
Results of an In-Vitro Skin Penetration Test for Magnesium Ascorbyl Phosphate (MAP) Aqueous Solution, Using the “Dual Chamber In-Vitro Test”
Active Substance: Magnesium Ascorbyl Phosphate (MAP) (Vitamin C Derivative) […]

[1] abbreviates: Iontophoretic System, 3% in distilled water, 25 mg applied, pH 7.0-7.4, 0.150 mA/cm^2, 30 minutes, individual cell.
[2] abbreviates: Iontophoretic System, 3%, 0.150 mA/cm^2, 30 minutes, Mean of 6 cells.
Where [3] appears, read: Passive Control (without electrical current).

Regarding `O=C1O[C@H]([C@@H](O)CO)C([O-])=C1OP(=O)([O-])[O-].O=C1O[C@H]([C@@H](O)CO)C([O-])=C1OP(=O)([O-])[O-].[Mg+2].[Mg+2].[Mg+2]` [MAP, Magnesium Ascorbyl Phosphate], under setting [1], the “Amount of Active, Receptor” value is 47.66 µg and 122.75 µg and 14.62 µg and 23.47 µg and 24.99 µg and 25.43 µg; the “Amount of Active, TS # 1, 2” value was 92.41 µg and 50.37 µg and 103.88 µg and 132.28 µg and 48.43 µg and 89.89 µg; the “Amount of Active, TS # 3-15” value is 89.22 µg and 2.94 µg and 115.27 µg and 43.90 µg and 8.71 µg and 50.43 µg; the “Amount of Active, TS Total” value was 181.63 µg and 53.31 µg and 219.15 µg and 176.18 µg and 57.14 µg and 140.32 µg. Further, under setting [1], the “Amount of Active, Viable Skin” value is 33.94 µg and 4.55 µg and 56.67 µg and 8.44 µg and 19.24 µg and 10.30 µg; the “Total TS # 3-15 + Viable Skin” value is 123.16 µg and 7.49 µg and 171.94 µg and 52.34 µg and 27.95 µg and 60.73 µg; the “Total TS # 3-15 + Viable skin” value was 183.82 μg/cm2 and 11.18 μg/cm2 and 256.63 μg/cm2 and 78.12 μg/cm2 and 41.72 μg/cm2 and 10.89 μg/cm2. Also, under setting [2], the “Amount of Active, Receptor (transferred through the skin)” value is 43 µg and 43.15 µg; the “Amount of Active, TS # 1, 2” value was 73.77 µg; the “Amount of Active, TS # 3-15” value turned out to be 42.06 µg; the “Amount of Active, TS Total” value amounted to 115.82 µg. Further, under setting [2], the “Amount of Active, Viable Skin” value was 23 µg and 23.07 µg; the “Total TS # 3-15 + Viable Skin (amount in the skin)” value was 65 µg and 65.13 µg; the “Total TS # 3-15 + Viable skin” value was 97.21 μg/cm2. Moreover, for the setting “Iontophoretic System, 3%, 0.150 mA/cm^2, 30 minutes, mean”, the “total amount found in the skin (TS#1-15+ Viable skin)” value is 139 µg. Further, under setting [3], the “mean amount found in the receptor” value is 2 µg; the “mean amount found in the viable skin” value came out at 1 µg; the “mean total amount found in tape strippings #1-15, compared with Iontophoretic System” value is listed as “in the same order of magnitude”.
